Measured values reported in patent publication EP2271935B1, “METHOD AND KIT FOR THE EX VIVO EVALUATION OF THE RESPONSE OF A TUMOR TO CONDITIONS TO BE TESTED” (Universität Leipzig, priority 2008, dated 2009).
Read-outs that look alike come from different tables or passages of the source.

System: epithelial cell line KB (DSMZ ACC 136)
Experiment: MTT assay of proliferation under varied riboflavin content and light exposure
Assay type: cell-based, human
From the text: To address this question, three media, a) the RPMI 1640 without riboflavin and phenol red that is used in the method according to the invention and was manufactured according to our specifications by Biochrom, as well as two different RPMI 1640 charges purchased from Invitrogen which were each containing 532 nmol/L riboflavin, b) a phenol red-free (Gibco 11835), and c) a conventional RPMI 1640 (Gibco 21875) with 13.284 µmol/L phenol red. All media were supplemented with 2 mmol/L L-alanyl-1-glutamine as stabilized glutamine source (Biochrom K0302 Lot 0755 S) and the same amount of 10% (v/v) of heat-inactivated fetal calf serum (FCS) that was purchased from Invitrogen (Lot 41Q7554K) with a yield of 198 nmol/L riboflavin. […] These medium concentrations define the riboflavin concentrations in controls (see below).
In addition to the influences exerted by the different types of media alone, the riboflavin-dependent impact on the outcome of the docetaxel treatment was investigated. For this purpose 100 µl/well of docetaxel dilutions containing threefold the concentration indicated were added into the wells of microwell plates. The following seven docetaxel concentrations were tested: 19.38, 38.75, 77.5, 155, 310, 620, and 1,240 pmol/L.
To examine photoactivation-dependent riboflavin-mediated effects disturbing the outcome of ex-vivo chemoresponse-evaluation by conventional cell culture medium, and in particular in the absence of flavin-protecting experimental conditions, varying amounts of riboflavin were added. A stock solution of 200 µM (-)-riboflavin (CAS 83-68-5, Sigma R9504, FW=376.37 g/mol, purity >99%, cell culture tested) in phosphate buffered saline was diluted to adjust in each case the highest final concentration in culture (this means: after completion of the assay by addition of the other two components to the final assay volume of 300 µL) to exactly 10 µmol/L. Serial log10-dilutions were made from this concentration in each corresponding medium. These gave final concentrations in cell culture of 10.000, 1.018, 0.12, and 0.03 µmol/L in the case of medium a) (the medium according to the method of the invention), and concentrations of 10.000, 1.449, 0.594, and 0.508 µmol/L using media b) and c).
In general, each combination of riboflavin and docetaxel were tested in duplicate, and controls without additional riboflavin in quadruplicate for each experimental setting in the same 96-well plate. The experimental conditions were as follows: For each of the used media, two different plates were prepared simultaneously and either handled completely under flavin-protecting conditions (illumination only by sodium discharge lamps with an emission wavelength of 589 nm [i]), or in the same bench (Thermo MSC 12) with the installed light inside their working chamber switched on. The dilution of docetaxel and those of riboflavin in the particular medium were prepared for all four plates of each medium type prior to the other working steps under flavin-protecting conditions. Thus the administrations of these dilutions took about 20 min either under flavin-protecting conditions or illuminated conditions. After completed preparation of the plates that thereafter contained 200 µL of both diluted compounds, the plates were incubated 2 h in the incubator to allow for adjustment of the appropriate pH.
In between the stock culture of KB was harvested by trypsination of a 3-days stock culture (exponential growth phase). Stock cultures of KB cells always were grown without any antibiotic or antimycotic in phenol red- and riboflavin-free RPMI 1640 supplemented with 10% (v/v) FCS and were adapted to this medium for more than five passages. They were always handled at room temperature or warmer and were never exposed to light other than the light of a sodium discharge lamp with an emission wavelength of 589 nm for at least five passages. […]

IC50 (Homo sapiens, Epithelial cell, 0.5 h, Plate No. 02; Riboflavin 20 nmol/L; medium a) RPMI 1640 without riboflavin and phenol red, daylight 30 min, read-out: IC50 for docetaxel with reference to control with same riboflavin content): 0.238 nM
IC50 (Homo sapiens, Epithelial cell, 0.5 h, Plate No. 02; Riboflavin 30 nmol/L; medium a) RPMI 1640 without riboflavin and phenol red, daylight 30 min, read-out: IC50 for docetaxel with reference to control with same riboflavin content): 0.328 nM
IC50 (Homo sapiens, Epithelial cell, 0.5 h, Plate No. 02; Riboflavin 120 nmol/L; medium a) RPMI 1640 without riboflavin and phenol red, daylight 30 min, read-out: IC50 for docetaxel with reference to control with same riboflavin content): 0.34 nM
IC50 (Homo sapiens, Epithelial cell, 0.5 h, Plate No. 03; Riboflavin 20 nmol/L; medium a) RPMI 1640 without riboflavin and phenol red, bench lighting <30 min, read-out: IC50 for docetaxel with reference to control with same riboflavin content): 0.212 nM
IC50 (Homo sapiens, Epithelial cell, 0.5 h, Plate No. 03; Riboflavin 30 nmol/L; medium a) RPMI 1640 without riboflavin and phenol red, bench lighting <30 min, read-out: IC50 for docetaxel with reference to control with same riboflavin content): 0.185 nM
IC50 (Homo sapiens, Epithelial cell, 0.5 h, Plate No. 03; Riboflavin 120 nmol/L; medium a) RPMI 1640 without riboflavin and phenol red, bench lighting <30 min, read-out: IC50 for docetaxel with reference to control with same riboflavin content): 0.154 nM
IC50 (Homo sapiens, Epithelial cell, 0.5 h, Plate No. 03; Riboflavin 1018 nmol/L; medium a) RPMI 1640 without riboflavin and phenol red, bench lighting <30 min, read-out: IC50 for docetaxel with reference to control with same riboflavin content): 0.202 nM
IC50 (Homo sapiens, Epithelial cell, 0.5 h, Plate No. 04; Riboflavin 20 nmol/L; medium a) RPMI 1640 without riboflavin and phenol red, bench lighting <30 min, daylight 30 min, read-out: IC50 for docetaxel with reference to control with same riboflavin content): 0.175 nM
IC50 (Homo sapiens, Epithelial cell, 0.5 h, Plate No. 04; Riboflavin 30 nmol/L; medium a) RPMI 1640 without riboflavin and phenol red, bench lighting <30 min, daylight 30 min, read-out: IC50 for docetaxel with reference to control with same riboflavin content): 0.139 nM
IC50 (Homo sapiens, Epithelial cell, 0.5 h, Plate No. 04; Riboflavin 120 nmol/L; medium a) RPMI 1640 without riboflavin and phenol red, bench lighting <30 min, daylight 30 min, read-out: IC50 for docetaxel with reference to control with same riboflavin content): 0.149 nM
IC50 (Homo sapiens, Epithelial cell, 0.5 h, Plate No. 06; Riboflavin 499 nmol/L; medium b) phenol red-free RPMI 1640, daylight 30 min, read-out: IC50 for docetaxel with reference to control with same riboflavin content): 0.223 nM
IC50 (Homo sapiens, Epithelial cell, 0.5 h, Plate No. 06; Riboflavin 508 nmol/L; medium b) phenol red-free RPMI 1640, daylight 30 min, read-out: IC50 for docetaxel with reference to control with same riboflavin content): 0.485 nM
IC50 (Homo sapiens, Epithelial cell, 0.5 h, Plate No. 06; Riboflavin 594 nmol/L; medium b) phenol red-free RPMI 1640, daylight 30 min, read-out: IC50 for docetaxel with reference to control with same riboflavin content): 0.187 nM
Compound: CC(=O)O[C@@]12CO[C@@H]1C[C@H](O)[C@@]1(C)C(=O)[C@H](O)C3=C(C)[C@@H](OC(=O)[C@H](O)[C@@H](NC(=O)OC(C)(C)C)c4ccccc4)C[C@@](O)([C@@H](OC(=O)c4ccccc4)[C@H]21)C3(C)C [docetaxel]
IC50 (Homo sapiens, Epithelial cell, 0.5 h, Plate No. 02; Riboflavin 20 nmol/L; medium a), daylight 30 min, read-out: IC50 for docetaxel normalized to medium control of medium with same riboflavin content): 0.1 nM
IC50 (Homo sapiens, Epithelial cell, 0.5 h, Plate No. 02; Riboflavin 30 nmol/L; medium a), daylight 30 min, read-out: IC50 for docetaxel normalized to medium control of medium with same riboflavin content): 0.138 nM
IC50 (Homo sapiens, Epithelial cell, 0.5 h, Plate No. 02; Riboflavin 120 nmol/L; medium a), daylight 30 min, read-out: IC50 for docetaxel normalized to medium control of medium with same riboflavin content): 0.143 nM
IC50 (Homo sapiens, Epithelial cell, 0.5 h, Plate No. 03; Riboflavin 20 nmol/L; medium a), bench lighting <30 min, read-out: IC50 for docetaxel normalized to medium control of medium with same riboflavin content): 0.1 nM
IC50 (Homo sapiens, Epithelial cell, 0.5 h, Plate No. 03; Riboflavin 30 nmol/L; medium a), bench lighting <30 min, read-out: IC50 for docetaxel normalized to medium control of medium with same riboflavin content): 0.0873 nM
IC50 (Homo sapiens, Epithelial cell, 0.5 h, Plate No. 03; Riboflavin 120 nmol/L; medium a), bench lighting <30 min, read-out: IC50 for docetaxel normalized to medium control of medium with same riboflavin content): 0.0725 nM
IC50 (Homo sapiens, Epithelial cell, 0.5 h, Plate No. 03; Riboflavin 1018 nmol/L; medium a), bench lighting <30 min, read-out: IC50 for docetaxel normalized to medium control of medium with same riboflavin content): 0.095 nM
IC50 (Homo sapiens, Epithelial cell, 0.5 h, Plate No. 04; Riboflavin 20 nmol/L; medium a), bench lighting <30 min, daylight 30 min, read-out: IC50 for docetaxel normalized to medium control of medium with same riboflavin content): 0.1 nM
IC50 (Homo sapiens, Epithelial cell, 0.5 h, Plate No. 04; Riboflavin 30 nmol/L; medium a), bench lighting <30 min, daylight 30 min, read-out: IC50 for docetaxel normalized to medium control of medium with same riboflavin content): 0.0796 nM
IC50 (Homo sapiens, Epithelial cell, 0.5 h, Plate No. 04; Riboflavin 120 nmol/L; medium a), bench lighting <30 min, daylight 30 min, read-out: IC50 for docetaxel normalized to medium control of medium with same riboflavin content): 0.0855 nM
IC50 (Homo sapiens, Epithelial cell, 0.5 h, Plate No. 06; Riboflavin 499 nmol/L; medium b), daylight 30 min, read-out: IC50 for docetaxel normalized to medium control of medium with same riboflavin content): 0.1 nM
IC50 (Homo sapiens, Epithelial cell, 0.5 h, Plate No. 06; Riboflavin 508 nmol/L; medium b), daylight 30 min, read-out: IC50 for docetaxel normalized to medium control of medium with same riboflavin content): 0.218 nM
